Numbered stars: 1 amine (or outer) side, 2 acyl side, 3 side chain; on linkers, the order of the positions; unused ones are H or OH. Bridge positions count the residues as written; N and C are the ends. Square brackets hold non-standard residues; d marks the D form. Peptide text beside a SMILES is read from it. * marks the point of attachment. ξ: configuration not given here. TBMB(SCH2CH2NH-DOTA) = O=C(O)CN1CCN(CC(=O)O)CCN(CC(=O)NCCSCc2cc(C[*:1])cc(C[*:2])c2)CCN(CC(=O)O)CC1; X24 = NCCNCC(CNCCN)C(=O)N[C@@H](CCC(=O)NC[C@H](O)[C@@H](O)[C@H](O)[C@H](O)CO)C(=O)NCCCOCCOCCOCCCN*; mXylylene = c1cc(C[*:1])cc(C[*:2])c1; 4Pal = N[C@@H](Cc1ccncc1)C(=O)O; Aic = NC1(C(=O)O)Cc2ccccc2C1; Suc = O=C(CCC(=O)[*:2])[*:1]; Nle = CCCC[C@H](N)C(=O)O; Hexanoyl = CCCCCC(=O)*; ξM = CSCCC(N)C(=O)O
How the values were obtained:
[1] = Plasma stability assay, mouse plasma; type: in vitro ADME; conditions: 4 h incubation, 37° C., read-out: % intact compound remaining after incubation, Mouse plasma
[2] = molecular target: T1, FAP-expressing human WI-38 fibroblasts (Homo sapiens, UniProt Q12884); assay: Competitive FACS binding assay; conditions: pIC50 Category (FACS), competition with 3 nM Cy5-labeled compound, 4° C., 1 hour
T1 construct: FAP-expressing human WI-38 fibroblasts (ECACC) were cultured in EMEM; host or cells: WI-38 human fibroblasts
T1 sequence (Q12884 1-760): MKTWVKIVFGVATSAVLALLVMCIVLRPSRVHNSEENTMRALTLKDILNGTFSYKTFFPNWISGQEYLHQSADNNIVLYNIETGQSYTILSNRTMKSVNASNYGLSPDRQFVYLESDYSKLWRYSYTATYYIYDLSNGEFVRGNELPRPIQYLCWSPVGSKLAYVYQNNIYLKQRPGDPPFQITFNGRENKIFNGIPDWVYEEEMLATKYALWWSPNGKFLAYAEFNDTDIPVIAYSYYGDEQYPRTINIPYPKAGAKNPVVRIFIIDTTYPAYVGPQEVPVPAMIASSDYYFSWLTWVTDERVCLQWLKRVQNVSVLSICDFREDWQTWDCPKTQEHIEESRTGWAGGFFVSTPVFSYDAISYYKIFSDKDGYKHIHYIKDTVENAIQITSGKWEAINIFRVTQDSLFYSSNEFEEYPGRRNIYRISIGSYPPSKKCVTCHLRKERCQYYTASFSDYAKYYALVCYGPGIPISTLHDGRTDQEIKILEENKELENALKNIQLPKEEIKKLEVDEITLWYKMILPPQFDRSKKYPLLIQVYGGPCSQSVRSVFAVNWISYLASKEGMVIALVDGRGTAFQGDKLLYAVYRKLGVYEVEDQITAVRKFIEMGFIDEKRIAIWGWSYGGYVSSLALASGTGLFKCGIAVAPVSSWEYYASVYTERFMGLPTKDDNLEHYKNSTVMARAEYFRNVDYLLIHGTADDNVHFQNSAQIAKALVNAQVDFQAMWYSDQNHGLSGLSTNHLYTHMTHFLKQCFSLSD
Experimental: Cells were analyzed in an Attune NxT flow cytometer. […]

Human recombinant FAP [3] = molecular target: T2, Human recombinant FAP (Homo sapiens, UniProt Q12884); assay: FRET-based FAP protease activity assay; type: biochemical; design: purchased R&D systems 3715-SE; conditions: pIC50 Category (Activity), FRET substrate, 37° C.
T2 sequence (Q12884 1-760): T1 sequence (Q12884 1-760)

Human recombinant FAP [4] = molecular target: T2, Human recombinant FAP; assay: Surface plasmon resonance (Biacore) assay; type: binding

Compound | remaining at 4 h, 9.8 µM [1] [%] | IC50 ([2]; WI-38 fibroblasts) [nM] | IC50 (Human recombinant FAP [3]; recombinant human FAP) [nM] | IC50 [2] [nM] | Kd (Human recombinant FAP [4]) [nM] | IC50 (Human recombinant FAP [3]) [nM]
CSCCC(N)C(=O)N[C@H]1CSCc2cccc(c2)CSC[C@@H](C(=O)N[C@@H](CC(=O)O)C(=O)N[C@@H](Cc2c[nH]cn2)C(=O)N[C@@H](Cc2ccccc2)C(=O)N[C@@H](CCCNC(=N)N)C(=O)N[C@@H](CC(=O)O)C(N)=O)NC(=O)[C@H](Cc2ccccc2)NC(=O)[C@H](CCC(=O)O)NC(=O)[C@H]([C@@H](C)O)NC(=O)[C@@H]2CCCN2C(=O)[C@@H]2CCCN2C1=O (stereo partly drawn) [3BP-2976, H-met-[Cys(3MeBn)-Pro-Pro-Thr-Glu-Phe-Cys]-Asp-His-Phe-Arg-Asp-NH2] (H-[ξM]CPPTEFCDHFRD-NH2; linker 2-8 via mXylylene) | 93 | < 10 | < 10 | – | – | –
CSCC[C@H](NC(C)=O)C(=O)N[C@H]1CSCc2cccc(c2)CSC[C@@H](C(=O)N[C@@H](CC(=O)O)C(=O)N[C@@H](Cc2c[nH]cn2)C(=O)N[C@@H](Cc2ccccc2)C(=O)N[C@@H](CCCNC(=N)N)C(=O)N[C@@H](CC(=O)O)C(N)=O)NC(=O)[C@H](Cc2ccccc2)NC(=O)[C@H](CCC(=O)O)NC(=O)[C@H]([C@@H](C)O)NC(=O)[C@H]2CCCN2C(=O)[C@@H]2CCCN2C1=O [3BP-3177, Ac-Met-[Cys(3MeBn)-Pro-pro-Thr-Glu-Phe-Cys]-Asp-His-Phe-Arg-Asp-NH2] (Ac-MCP[dP]TEFCDHFRD-NH2; linker 2-8 via mXylylene) | 79 | 10 to 79.4 | 10 to 79.4 | – | – | –
CSCC[C@H](NC(C)=O)C(=O)N[C@@H]1CSCc2cccc(c2)CSC[C@H](C(=O)N[C@@H](CC(=O)O)C(=O)N[C@@H](Cc2c[nH]cn2)C(=O)N[C@@H](Cc2ccccc2)C(=O)N[C@@H](CCCNC(=N)N)C(=O)N[C@@H](CC(=O)O)C(N)=O)NC(=O)[C@H](Cc2ccccc2)NC(=O)[C@H](CCC(=O)O)NC(=O)[C@H]([C@@H](C)O)NC(=O)[C@@H]2CCCN2C(=O)[C@@H]2CCCN2C1=O [3BP-3181, Ac-Metqcys(3MeBn)-Pro-Pro-Thr-Glu-Phe-cys]-Asp-His-Phe-Arg-Asp-NH2] (Ac-M[dC]PPTEF[dC]DHFRD-NH2; linker 2-8 via mXylylene) | 100 | – | – | – | – | –
CSCC[C@H](NC(C)=O)C(=O)N[C@H]1CSCc2cccc(c2)CSC[C@@H](C(=O)N[C@H](CC(=O)O)C(=O)N[C@@H](Cc2c[nH]cn2)C(=O)N[C@@H](Cc2ccccc2)C(=O)N[C@@H](CCCNC(=N)N)C(=O)N[C@@H](CC(=O)O)C(N)=O)NC(=O)[C@H](Cc2ccccc2)NC(=O)[C@H](CCC(=O)O)NC(=O)[C@H]([C@@H](C)O)NC(=O)[C@@H]2CCCN2C(=O)[C@@H]2CCCN2C1=O [3BP-3183, Ac-Met-[Cys(3MeBn)-Pro-Pro-Thr-Glu-Phe-Cys]-asp-His-Phe-Arg-Asp-NH2] (Ac-MCPPTEFC[dD]HFRD-NH2; linker 2-8 via mXylylene) | 98 | 10 to 79.4 | 10 to 79.4 | – | – | –
CSCC[C@H](NC(C)=O)C(=O)N[C@H]1CSCc2cccc(c2)CSC[C@@H](C(=O)N[C@@H](CC(=O)O)C(=O)N[C@@H](Cc2c[nH]cn2)C(=O)N(C)[C@@H](Cc2ccccc2)C(=O)N[C@@H](CCCNC(=N)N)C(=O)N[C@@H](CC(=O)O)C(N)=O)NC(=O)[C@H](Cc2ccccc2)NC(=O)[C@H](CCC(=O)O)NC(=O)[C@H]2NC(=O)[C@@H]3C(CCN3C(=O)[C@@H]3CCCN3C1=O)[C@H]2O [3BP-3188, Ac-Met-[Cys(3MeBn)-Pro-Pro-Thr-Glu-Phe-Cys]-Asp-His-Nmf-Arg-Asp-NH2] | 97 | < 10 | < 10 | – | – | –
CSCC[C@H](NC(C)=O)C(=O)N[C@H]1CSCc2cccc(c2)CSC[C@@H](C(=O)N[C@@H](CC(=O)O)C(=O)N[C@@H](Cc2c[nH]cn2)C(=O)N2Cc3ccccc3C[C@H]2C(=O)N[C@@H](CCCNC(=N)N)C(=O)N[C@@H](CC(=O)O)C(N)=O)NC(=O)[C@H](Cc2ccccc2)NC(=O)[C@H](CCC(=O)O)NC(=O)[C@H]2NC(=O)[C@@H]3C(CCN3C(=O)[C@@H]3CCCN3C1=O)[C@H]2O [3BP-3189, Ac-Met-[Cys(3MeBn)-Pro-Pro-Thr-Glu-Phe-Cys]-Asp-His-Tic-Arg-Asp-NH2] | 100 | < 10 | < 10 | – | – | –
CSCC[C@H](NC(C)=O)C(=O)N[C@H]1CSCc2cccc(c2)CSC[C@@H](C(=O)N[C@@H](CC(=O)O)C(=O)N[C@@H](Cc2c[nH]cn2)C(=O)NC2(C(=O)N[C@@H](CCCNC(=N)N)C(=O)N[C@@H](CC(=O)O)C(N)=O)Cc3ccccc3C2)NC(=O)[C@H](Cc2ccccc2)NC(=O)[C@H](CCC(=O)O)NC(=O)[C@H]([C@@H](C)O)NC(=O)[C@@H]2CCCN2C(=O)[C@@H]2CCCN2C1=O [3BP-3190, Ac-Met-[Cys(3MeBn)-Pro-Pro-Thr-Glu-Phe-Cys]-Asp-His-Aic-Arg-Asp-NH2] (Ac-MCPPTEFCDH[Aic]RD-NH2; linker 2-8 via mXylylene) | 88 | < 10 | < 10 | – | – | –
CSCC[C@H](NC(C)=O)C(=O)N[C@H]1CSCc2cccc(c2)CSC[C@@H](C(=O)N[C@@H](CC(=O)O)C(=O)N[C@@H](Cc2c[nH]cn2)C(=O)N[C@@H](Cc2ccncc2)C(=O)N[C@@H](CCCNC(=N)N)C(=O)N[C@@H](CC(=O)O)C(N)=O)NC(=O)[C@H](Cc2ccccc2)NC(=O)[C@H](CCC(=O)O)NC(=O)[C@H]([C@@H](C)O)NC(=O)[C@@H]2CCCN2C(=O)[C@@H]2CCCN2C1=O [3BP-3191, Ac-Met-[Cys(3MeBn)-Pro-Pro-Thr-Glu-Phe-Cys]-Asp-His-Ppa-Arg-Asp-NH2] (Ac-MCPPTEFCDH[4Pal]RD-NH2; linker 2-8 via mXylylene) | 100 | < 10 | < 10 | – | – | –
CSCC[C@H](NC(C)=O)C(=O)N[C@H]1CSCc2cccc(c2)CSC[C@@H](C(=O)N[C@@H](CC(=O)O)C(=O)N[C@@H](Cc2c[nH]cn2)C(=O)N[C@@H](C)C(=O)N[C@@H](CCCNC(=N)N)C(=O)N[C@@H](CC(=O)O)C(N)=O)NC(=O)[C@H](Cc2ccccc2)NC(=O)[C@H](CCC(=O)O)NC(=O)[C@H]([C@@H](C)O)NC(=O)[C@@H]2CCCN2C(=O)[C@@H]2CCCN2C1=O [3BP-3196, Ac-Met-[Cys(3MeBn)-Pro-Pro-Thr-Glu-Phe-Cys]-Asp-His-Ala-Arg-Asp-NH2] (Ac-MCPPTEFCDHARD-NH2; linker 2-8 via mXylylene) | 87 | < 10 | < 10 | – | – | –
CCCC[C@H](NC(=O)CCC(=O)NCCCOCCOCCOCCCNC(=O)[C@H](CCC(=O)NC[C@H](O)[C@@H](O)[C@H](O)[C@H](O)CO)NC(=O)C(CNCCN)CNCCN)C(=O)N[C@H]1CSCc2cccc(c2)CSC[C@@H](C(=O)O)NC(=O)[C@H](Cc2ccccc2)NC(=O)[C@H](CCC(=O)O)NC(=O)[C@H]([C@@H](C)O)NC(=O)[C@@H]2CCCN2C(=O)[C@@H]2CCCN2C1=O [3BP-4246, N4Ac-Glu(AGLU)-Ttds-Nle-[Cys-(3MeBn)-Pro-Pro-Thr-Gln-Phe-Cys]-OH] ({X24-Suc}-[Nle]CPPTEFC-OH; linker 2-8 via mXylylene) | – | – | – | 10 to 79.4 | < 10 | 10 to 79.4
CCCCCC(=O)N[C@H]1CSCc2cc(CSCCNC(=O)CN3CCN(CC(=O)O)CCN(CC(=O)O)CCN(CC(=O)O)CC3)cc(c2)CSC[C@@H](C(=O)O)NC(=O)[C@H](Cc2ccccc2)NC(=O)[C@H](CCC(=O)O)NC(=O)[C@H]([C@@H](C)O)NC(=O)[C@@H]2CCCN2C(=O)[C@@H]2CCCN2C1=O [3BP-4250, Hex-[Cys-(tMeBn(DOTA-AET))-Pro-Pro-Thr-Glu-Phe-Cys]-OH] (Hexanoyl-CPPTEFC-OH; linker 1-7 via TBMB(SCH2CH2NH-DOTA)) | – | – | – | < 10 | < 10 | 10 to 79.4
CCCCCC(=O)N[C@H]1CSCc2cc(CSCCNC(=O)COCCOCCNC(=O)CC[C@H](C(=O)O)N3CCN(CC(=O)O)CCN(CC(=O)O)CC3)cc(c2)CSC[C@@H](C(=O)O)NC(=O)[C@H](Cc2ccccc2)NC(=O)[C@H](CCC(N)=O)NC(=O)[C@H]([C@@H](C)O)NC(=O)[C@@H]2CCCN2C(=O)[C@@H]2CCCN2C1=O [3BP-4251, Hex-[Cys-(tMeBn(NODAGA-O2Oc-AET))-Pro-Pro-Thr-Gln-Phe-Cys]-OH] | – | – | – | < 10 | < 10 | < 10

— patent publication US20220315554A1, “COMPOUNDS COMPRISING A […] LIGAND AND USE THEREOF” (priority 2019, published 2022)
